Patent US20250230193A1, “CYCLIC COMPOUND HAVING SELECTIVE KRAS INHIBITORY EFFECT ON HRAS AND NRAS” (CHUGAI SEIYAKU KABUSHIKI KAISHA, priority 2022, published 2025)
*1 amine or outer side, *2 acyl side, *3 side chain or, on linkers, in order; H or OH if unused. Where a SMILES comes first, the peptide text is derived from it. Bridges are numbered along the chain shown (N, C = ends). [ ]: non-standard residue; d: D form. The star is where a group is joined. hPhe(3-Cl-4-CF3) = N[C@@H](CCc1ccc(C(F)(F)F)c(Cl)c1)C(=O)O; NPrPhe(4-CF3) = CCCN[C@@H](Cc1ccc(C(F)(F)F)cc1)C(=O)O; X49 = Cc1ccc(C[C@@H](C(=O)[*:2])N(CC2CC2)[*:1])cc1; X5 = CCCN([C@H](C(=O)[*:2])C1CCCC1)[*:1]; NMeGly(cPent) = CN[C@H](C(=O)O)C1CCCC1; NMeD = CN[C@@H](CC(=O)O)C(=O)O; NMeL = CN[C@@H](CC(C)C)C(=O)O; X51 = O=C(CN(CCF)[*:1])[*:2]; Morpholide = C1CN(*)CCO1; NMeA = CN[C@@H](C)C(=O)O; Piperidide = C1CCN(*)CC1; Ac5c = NC1(C(=O)O)CCCC1; Aze = O=C(O)[C@@H]1CCN1; Sar = CNCC(=O)O

Tests used:
[1] = molecular target: GDP-bound NRAS wild-type protein (Homo sapiens, UniProt P01111); assay: Binding to NRAS by surface plasmon resonance (SPR), Single Cycle Kinetics; details: for NRAS/KRAS (ratio of KD value for NRAS to KD value for KRAS): GDP-bound NRAS wild-type vs GDP-bound KRAS wild-type
[2] = molecular target: GDP-bound HRAS wild-type protein (Homo sapiens, UniProt P01112); assay: Binding to HRAS by surface plasmon resonance (SPR), Single Cycle Kinetics; details: for HRAS/KRAS (ratio of KD value for HRAS to KD value for KRAS): GDP-bound HRAS wild-type vs GDP-bound KRAS wild-type
[3] = SPR, GDP-bound wild-type proteins

Chain of GDP-bound NRAS wild-type protein (P01111 whole entry): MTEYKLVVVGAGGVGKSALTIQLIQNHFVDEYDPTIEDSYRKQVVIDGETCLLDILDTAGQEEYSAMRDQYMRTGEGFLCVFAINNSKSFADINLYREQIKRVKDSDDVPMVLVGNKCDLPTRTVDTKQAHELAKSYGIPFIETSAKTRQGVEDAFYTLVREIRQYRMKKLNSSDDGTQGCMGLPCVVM
Chain of GDP-bound HRAS wild-type protein (P01112 whole entry): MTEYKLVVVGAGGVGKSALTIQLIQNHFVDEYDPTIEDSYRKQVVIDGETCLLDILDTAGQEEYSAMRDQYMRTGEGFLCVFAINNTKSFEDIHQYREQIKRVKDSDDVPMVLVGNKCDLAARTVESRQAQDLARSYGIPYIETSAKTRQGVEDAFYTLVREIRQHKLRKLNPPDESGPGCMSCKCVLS

CCCN1C(=O)CN(C)C(=O)CN(CCF)C(=O)[C@H]([C@@H](C)CC)NC(=O)[C@H](CC(C)C)N(C)C(=O)C[C@@H](C(=O)N2CCOCC2)N(C)C(=O)[C@H](C2CCCC2)N(C)C(=O)C2(CCCC2)NC(=O)[C@@H]2CCCN2C(=O)[C@H](CCc2ccc(C(F)(F)F)c(Cl)c2)NC(=O)CN(C)C(=O)[C@@H]1Cc1ccc(C(F)(F)F)cc1 [PP0751] ([NMeL]I[X51][Sar][NPrPhe(4-CF3)][Sar][hPhe(3-Cl-4-CF3)]P[Ac5c][NMeGly(cPent)][NMeD]-Morpholide; lactam N-11)
NRAS/KRAS (ratio of KD value with respect to GDP-bound NRAS wild-type protein to KD value with respect to KRAS) ([1]; SPR): B (a compound having 3 or more and less than 10 is denoted as B)
HRAS/KRAS (ratio of KD value with respect to GDP-bound HRAS wild-type protein to KD value with respect to KRAS) ([2]; SPR): C (A compound having a KD ratio of 0.1 or more and less than 3 is denoted as C)

CC[C@H](C)[C@@H]1NC(=O)[C@H](COC)N(C)C(=O)C[C@@H](C(=O)N(C)C)N(C)C(=O)[C@H](C2CCCCC2)N(C)C(=O)C2(CC(C)(C)C2)NC(=O)[C@@H]2C[C@@H](OC3CCCC3)CN2C(=O)[C@H](CCc2cc(F)c(C(F)(F)F)c(F)c2)NC(=O)CN(C)C(=O)[C@H](Cc2ccc(C(F)(F)F)cc2)N2CC/C=C\C[C@@H](C2=O)N(C)C(=O)CN(C)C1=O [PP2656]
NRAS/KRAS (ratio of KD value with respect to GDP-bound NRAS wild-type protein to KD value with respect to KRAS) ([1]; class symbols): A (a compound having 10 or more and less than 20 is denoted as A)
HRAS/KRAS (ratio of KD value with respect to GDP-bound HRAS wild-type protein to KD value with respect to KRAS) ([2]; class symbols): B (a compound having 3 or more and less than 10 is denoted as B)

CCC[C@H]1C(=O)N[C@@H]([C@@H](C)CC)C(=O)N2CCC[C@H]2C(=O)N(C)[C@H]2C/C=C\CCN(C2=O)[C@@H](Cc2ccc(C)cc2)C(=O)N(C)CC(=O)N[C@@H](CCc2cc(F)c(C(F)(F)F)c(F)c2)C(=O)N2C[C@H](OCC)C[C@H]2C(=O)N(C)C2(CCC2)C(=O)N(C)[C@@H](C2CCCC2)C(=O)N(C)[C@H](C(=O)N2CCCCC2)CC(=O)N1C [PP3115, (1S,4S,10S,13S,17S,20S,26S,28R,32S,38S,42Z)-20-cyclopentyl-32-[2-[3,5-difluoro-4-(trifluoromethyl)phenyl]ethyl]-28-ethoxy-2,14,18,21,24,36-hexamethyl-10-[(1S)-1-methylpropyl]-17-(piperidine-1-carbonyl)-13-propyl-38-(p-tolylmethyl)spiro[2,8,11,14,18,21,24,30,33,36,39-undecazatetracyclo[37.5.1.0^4,8.0^26,30]pentatetracont-42-ene-23,1′-cyclobutane]-3,9,12,15,19,22,25,31,34,37,45-undecone]
NRAS/KRAS (ratio of KD value with respect to GDP-bound NRAS wild-type protein to KD value with respect to KRAS) [1, 3]: A (a compound having 10 or more and less than 20 is denoted as A)
HRAS/KRAS (ratio of KD value with respect to GDP-bound HRAS wild-type protein to KD value with respect to KRAS) [2, 3]: B (a compound having 3 or more and less than 10 is denoted as B)

CCCN1C(=O)CN(C)C(=O)CN(C)C(=O)[C@H]([C@@H](C)CC)NC(=O)[C@H](CC(C)C)N(C)C(=O)C[C@@H](C(=O)N2CCOCC2)N(C)C(=O)[C@H](C2CCCC2)N(C)C(=O)C2(CCCC2)NC(=O)[C@@H]2CCCN2C(=O)[C@H](CCc2ccc(C(F)(F)F)c(Cl)c2)NC(=O)CN(C)C(=O)[C@@H]1C1CCCC1 [PP0061] ([NMeL]I[Sar][Sar][X5][Sar][hPhe(3-Cl-4-CF3)]P[Ac5c][NMeGly(cPent)][NMeD]-Morpholide; lactam N-11)
NRAS/KRAS (ratio of KD for GDP-bound NRAS wild-type to KD for KRAS) ([1]; SPR): B (a compound having 3 or more and less than 10 is denoted as B)
HRAS/KRAS (ratio of KD for GDP-bound HRAS wild-type to KD for KRAS) ([2]; SPR): C (A compound having a KD ratio of 0.1 or more and less than 3 is denoted as C)

CCC[C@H]1C(=O)N[C@@H](C2CCCC2)C(=O)N(C)CC(=O)N(C)[C@H]2C/C=C\CCN(C2=O)[C@@H](Cc2ccc(C)cc2)C(=O)N(C)CC(=O)N[C@@H](CCc2ccc(C(F)(F)F)c(OC)c2)C(=O)N2C[C@H](OCC)C[C@H]2C(=O)NC2(CC(C)(C)C2)C(=O)N(C)[C@@H](CC(C)(C)C)C(=O)N(C)[C@H](C(=O)N(C)C)CC(=O)N1C [PP3005]
NRAS/KRAS (ratio of KD value with respect to GDP-bound NRAS wild-type protein to KD value with respect to KRAS) [1, 3]: A (a compound having 10 or more and less than 20 is denoted as A)
HRAS/KRAS (ratio of KD value with respect to GDP-bound HRAS wild-type protein to KD value with respect to KRAS) [2, 3]: B (a compound having 3 or more and less than 10 is denoted as B)

CCCC[C@H]1C(=O)N[C@@H]([C@@H](C)CC)C(=O)N(C)CC(=O)N(C)[C@H]2C/C=C\CCN(C2=O)[C@@H](Cc2ccc(C(F)(F)F)cc2)C(=O)N(C)CC(=O)N[C@@H](CCc2cc(F)c(C(F)(F)F)c(F)c2)C(=O)N2C[C@@H](C)C[C@H]2C(=O)NC2(CC(C)(C)C2)C(=O)N(C)[C@@H](C2CCCC2)C(=O)N(C)[C@H](C(=O)N(C)C)CC(=O)N1C [PP1661]
NRAS/KRAS (ratio of KD value for NRAS to KD value for KRAS) ([1]; SPR): A (a compound having 10 or more and less than 20 is denoted as A)
HRAS/KRAS (ratio of KD value for HRAS to KD value for KRAS) ([2]; SPR): A (a compound having 10 or more and less than 20 is denoted as A)

CC[C@H](C)[C@@H]1NC(=O)[C@H](CC(C)C)N(C)C(=O)C[C@@H](C(=O)N2CCOCC2)N(C)C(=O)[C@H](C2CCCC2)N(C)C(=O)C2(CCCC2)NC(=O)[C@@H]2CCCN2C(=O)[C@H](CCc2ccc(C(F)(F)F)c(Cl)c2)NC(=O)CN(C)C(=O)[C@H](Cc2ccc(C)cc2)N(CC2CC2)C(=O)[C@@H]2CCN2C(=O)[C@H](C)N(C)C1=O [PP0057] ([NMeL]I[NMeA][Aze][X49][Sar][hPhe(3-Cl-4-CF3)]P[Ac5c][NMeGly(cPent)][NMeD]-Morpholide; lactam N-11)
NRAS/KRAS (ratio of KD for GDP-bound NRAS wild-type to KD for KRAS) ([1]; SPR): C (A compound having a KD ratio of 0.1 or more and less than 3 is denoted as C)
HRAS/KRAS (ratio of KD for GDP-bound HRAS wild-type to KD for KRAS) ([2]; SPR): B (a compound having 3 or more and less than 10 is denoted as B)

CCO[C@@H]1C[C@H]2C(=O)NC3(CCC3)C(=O)N(C)[C@@H](C3CCCC3)C(=O)N(C)[C@H](C(=O)N(C)CC)CC(=O)N(C)[C@@H](C3CCC3)C(=O)N[C@@H]([C@@H](C)CC)C(=O)N(C)CC(=O)N(C)[C@H]3C/C=C\CCN(C3=O)[C@@H](Cc3ccc(C(F)(F)F)cc3)C(=O)N(C)CC(=O)N[C@@H](CCc3ccc(C(F)(F)F)c(OC)c3)C(=O)N2C1 [PP2022]
NRAS/KRAS (ratio of KD value for NRAS to KD value for KRAS) ([1]; SPR): A (a compound having 10 or more and less than 20 is denoted as A)
HRAS/KRAS (ratio of KD value for HRAS to KD value for KRAS) ([2]; SPR): A (a compound having 10 or more and less than 20 is denoted as A)

CCC[C@H]1C(=O)N[C@@H]([C@@H](C)CC)C(=O)N(C)CC(=O)N(C)[C@H]2C/C=C\CCN(C2=O)[C@@H](Cc2ccc(C)cc2)C(=O)N(C)CC(=O)N[C@@H](CCc2ccc3sc(F)c(C)c3c2)C(=O)N2C[C@H](OCC)C[C@H]2C(=O)NC2(CC(C)(C)C2)C(=O)N(C)[C@@H](C(CC)CC)C(=O)N(C)[C@H](C(=O)N(C)C)CC(=O)N1C [PP2894]
NRAS/KRAS (ratio of KD value with respect to GDP-bound NRAS wild-type protein to KD value with respect to KRAS) ([1]; class symbols): AA (a compound having 20 or more is denoted as AA)
HRAS/KRAS (ratio of KD value with respect to GDP-bound HRAS wild-type protein to KD value with respect to KRAS) ([2]; class symbols): A (a compound having 10 or more and less than 20 is denoted as A)

CCCN1C(=O)[C@@H]2CCN2C(=O)[C@H](C)N(C)C(=O)[C@H]([C@@H](C)CC)NC(=O)[C@H](CC(C)C)N(C)C(=O)C[C@@H](C(=O)N2CCCCC2)N(C)C(=O)[C@H](C2CCCC2)N(C)C(=O)C2(CCCC2)NC(=O)[C@@H]2CCCN2C(=O)[C@H](CCc2ccc(C(F)(F)F)c(Cl)c2)NC(=O)CN(C)C(=O)[C@@H]1Cc1ccc(C(F)(F)F)cc1 [PP0180] ([NMeL]I[NMeA][Aze][NPrPhe(4-CF3)][Sar][hPhe(3-Cl-4-CF3)]P[Ac5c][NMeGly(cPent)][NMeD]-Piperidide; lactam N-11)
NRAS/KRAS (ratio of KD for GDP-bound NRAS wild-type to KD for KRAS) ([1]; SPR): C (A compound having a KD ratio of 0.1 or more and less than 3 is denoted as C)
HRAS/KRAS (ratio of KD for GDP-bound HRAS wild-type to KD for KRAS) ([2]; SPR): C (A compound having a KD ratio of 0.1 or more and less than 3 is denoted as C)
